Experimental findings from ChEMBL document CHEMBL5506009 (Eur J Med Chem, 2024) are described below.

In general, EC50 refers to the concentration giving half of the maximal effect. High values mean lower potency in that assay, low ones higher potency in that assay. By IC50 is commonly meant the concentration that inhibits the measured activity by half. Higher therefore signals weaker potency in that assay.

The test system of one assay is Influenza A virus. Briefly: microbe, parasite or virus in culture. The conditions noted are these: H5N1.
For the molecule `O=C(CSc1nnc(-c2ccc3ncccc3c2)o1)NCc1ccc(Cl)c(Cl)c1`, the EC50 came out at 110 nM.

Turning to `CCC(CC)O[C@@H]1C=C(C(=O)O)C[C@H](N)[C@H]1NC(C)=O` [OSELTAMIVIR CARBOXYLATE], the EC50 was determined as 1470 nM.

`O=C(CSc1nnc(COc2ccc3ccccc3c2)o1)NCc1ccc(F)cc1` showed an EC50 of 3700 nM.

Tested on in another assay: not listed separately
As to the kind of experiment: Inhibition of wild type influenza A virus H5N1 A/Anhui/1/2005 Neuraminidase using MUNANA as substrate.
Conditions: not given
In turn, `Cc1cc([N+](=O)[O-])ccc1NC(=O)CSc1nnc(COc2ccc3ccccc3c2)o1` yielded an IC50 of 1350 nM. This counts as single-digit micromolar.

In turn, `COc1ccc(CCNC(=O)CSc2nnc(COc3ccc4ccccc4c3)o2)cc1OC` gave an IC50 of 2820 nM.

Regarding `O=C(CSc1nnc(-c2ccc3ncccc3c2)o1)Nc1ccc(C(F)(F)F)cn1`, the midpoint of inhibition, the IC50, lay at 1960 nM. This IC50 and that of the molecule before are within 1.5-fold of each other.

Turning to `COc1cc(NC(=O)CSc2nnc(COc3ccc4ccccc4c3)o2)cc(OC)c1OC`, the IC50 is 43800 nM.

Take `O=C(CSc1nnc(COc2ccc3ccccc3c2)o1)Nc1ccc(C(F)(F)F)cn1`: the IC50 was 22700 nM.

In turn, `O=C(CSc1nnc(-c2ccc3ncccc3c2)o1)NCCc1cccc(F)c1` gave an IC50 of 10700 nM.

On to `O=C(CSc1nnc(-c2ccc3ncccc3c2)o1)NCc1ccc(Cl)c(Cl)c1`, for which inhibition was half-maximal at 470 nM (IC50).

For `O=C(CSc1nnc(-c2ccc3ncccc3c2)o1)NCc1ccc(F)cc1`, 1750 nM corresponded to half-maximal inhibition (IC50).

With `O=C(CSc1nnc(COc2ccc3ccccc3c2)o1)NCCc1ccc2c(c1)OCO2`, inhibition was half-maximal at 25600 nM (IC50).

In turn, `COc1cccc(CCNC(=O)CSc2nnc(COc3ccc4ccccc4c3)o2)c1` showed a half-inhibitory concentration (IC50) of 2840 nM.

`O=C(CSc1nnc(-c2ccc3ncccc3c2)o1)NCCc1ccc2c(c1)OCO2` gave an IC50 of 81000 nM.

`CCC(CC)O[C@@H]1C=C(C(=O)O)C[C@H](N)[C@H]1NC(C)=O` [OSELTAMIVIR CARBOXYLATE]: 310 nM corresponded to half-maximal inhibition (IC50).

Turning to `O=C(CSc1nnc(COc2ccc3ccccc3c2)o1)NCc1ccc(F)cc1`, it took 140 nM to reach half-maximal inhibition (IC50).

For `COc1ccc(CCNC(=O)CSc2nnc(-c3ccc4ncccc4c3)o2)cc1OC`, the IC50 was 2650 nM. Against the preceding molecule, the IC50 is about 19-fold higher.

For the molecule `COc1cccc(CCNC(=O)CSc2nnc(-c3ccc4ncccc4c3)o2)c1`, the IC50 came to 2510 nM.

For the molecule `O=C(CSc1nnc(COc2ccc3ccccc3c2)o1)NCCc1cccc(F)c1`, it took 1160 nM to reach half-maximal inhibition (IC50).

In turn, `COc1cc(NC(=O)CSc2nnc(-c3ccc4ncccc4c3)o2)cc(OC)c1OC` yielded a 50% inhibitory concentration (IC50) of 10400 nM.

`O=C(CSc1nnc(COc2ccc3ccccc3c2)o1)NCc1ccc(Cl)c(Cl)c1` showed an IC50 of 860 nM. This IC50 is about 12-fold lower than that of the molecule before.
